Molecules are shown by their SMILES.

The values that follow come from publication PMC12498136, “Synthesis and biological evaluation of novel carnosic acid derivatives with anticancer activity” (RSC Advances, 2025).

The assay relates to CDK4. The experiment in a line: Western blot of CDK4 levels in SW480 cells. The assay is classed as cell-based. The settings on record: SW480, 6.3 μM, relative to control. Here is the method: SW480 cells were seeded in 6-well plates and treated as described in the previous subsection. After 24, 48 or 72 h of incubation, adherent cells were washed twice with ice-cold DPBS and incubated with lysis buffer (0.2% Triton X-100, 0.5 mM sodium deoxycholate, 1 mM Na-EDTA, 1 mM DTT, 20 mM Tris–HCl (pH 7.5), 0.5% phosphatases inhibitor cocktail, and 1% proteases inhibitor cocktail) for 30 min at 4 °C. The cells were scraped, sonicated, and centrifuged at 120 00 × g (20 min at 4 °C). […] The gels were then transferred to PVDF membranes, which were blocked with 5% skim milk in PBS-Tween-20 (0.1%) for 1 h at room temperature. Subsequently, the membranes were incubated with the primary antibodies for 30 mi at room temperature (actin) or overnight at 4 °C (CDK4, CDK6, cyclin A, Rb and SOD2/MnSOD). After incubation, the membranes were washed with PBS-Tween-20 (0.1%) and incubated with anti-mouse secondary antibody (40 min) or anti-rabbit secondary antibody (1 h) at room temperature. Finally, the membranes were washed with PBS-Tween-20 (0.1%) and treated with the Immobilon Western Chemiluminescent HRP Substrate Kit, and autoradiography was performed using an FPM-100A film processor (Fujifilm, Tokyo, Japan). western blot results were obtained from three independent experiments, except for cyclin A at 24 h (n = 2), Rb protein at 24 and 72 h (n = 2), and SOD2 (MnSOD) at 72 h (n = 2).
A general note: Immunoblotting shows a protein as a band on a membrane.

As to `CC(=O)Oc1c(C(C)C)cc2c(c1OC(C)=O)[C@@]1(NC(=O)OCC(C)C)CCCC(C)(C)[C@@H]1CC2` [Compound 17, (4bR,8aS)-8,8-Dimethyl-4b-{[(2-methylpropoxy)carbonyl]amino}-2-(propan-2-yl)-4b,5,6,7,8,8a,9,10-octahydrophenanthrene-3,4-diyl diacetate], the CDK4 protein level entry reads like this: (24 h) “significantly reduced”; (48 h) “lower than those in the control group”; (72 h) “reduction”.
